Experimental data reported in patent publication US7655657B2, “Fused bicycloheterocycle substituted quinuclidine derivatives” (Abbott Laboratories, priority 2003, dated 2010).
Structures can show the parent of a compound that is named as a salt. Where two headings read alike, the source gives them in different places.

Tests used:
[1] = target: hERG ion channel (Homo sapiens, UniProt Q12809); assay: [3H]-dofetilide binding to membranes from HERG-transfected HEK cells; conditions: for selectivity ratio at 45 min: human, membrane preparations from HERG-transfected HEK cells, pH 7.4, probe [3H]-dofetilide
Chain of hERG ion channel (Q12809 whole entry): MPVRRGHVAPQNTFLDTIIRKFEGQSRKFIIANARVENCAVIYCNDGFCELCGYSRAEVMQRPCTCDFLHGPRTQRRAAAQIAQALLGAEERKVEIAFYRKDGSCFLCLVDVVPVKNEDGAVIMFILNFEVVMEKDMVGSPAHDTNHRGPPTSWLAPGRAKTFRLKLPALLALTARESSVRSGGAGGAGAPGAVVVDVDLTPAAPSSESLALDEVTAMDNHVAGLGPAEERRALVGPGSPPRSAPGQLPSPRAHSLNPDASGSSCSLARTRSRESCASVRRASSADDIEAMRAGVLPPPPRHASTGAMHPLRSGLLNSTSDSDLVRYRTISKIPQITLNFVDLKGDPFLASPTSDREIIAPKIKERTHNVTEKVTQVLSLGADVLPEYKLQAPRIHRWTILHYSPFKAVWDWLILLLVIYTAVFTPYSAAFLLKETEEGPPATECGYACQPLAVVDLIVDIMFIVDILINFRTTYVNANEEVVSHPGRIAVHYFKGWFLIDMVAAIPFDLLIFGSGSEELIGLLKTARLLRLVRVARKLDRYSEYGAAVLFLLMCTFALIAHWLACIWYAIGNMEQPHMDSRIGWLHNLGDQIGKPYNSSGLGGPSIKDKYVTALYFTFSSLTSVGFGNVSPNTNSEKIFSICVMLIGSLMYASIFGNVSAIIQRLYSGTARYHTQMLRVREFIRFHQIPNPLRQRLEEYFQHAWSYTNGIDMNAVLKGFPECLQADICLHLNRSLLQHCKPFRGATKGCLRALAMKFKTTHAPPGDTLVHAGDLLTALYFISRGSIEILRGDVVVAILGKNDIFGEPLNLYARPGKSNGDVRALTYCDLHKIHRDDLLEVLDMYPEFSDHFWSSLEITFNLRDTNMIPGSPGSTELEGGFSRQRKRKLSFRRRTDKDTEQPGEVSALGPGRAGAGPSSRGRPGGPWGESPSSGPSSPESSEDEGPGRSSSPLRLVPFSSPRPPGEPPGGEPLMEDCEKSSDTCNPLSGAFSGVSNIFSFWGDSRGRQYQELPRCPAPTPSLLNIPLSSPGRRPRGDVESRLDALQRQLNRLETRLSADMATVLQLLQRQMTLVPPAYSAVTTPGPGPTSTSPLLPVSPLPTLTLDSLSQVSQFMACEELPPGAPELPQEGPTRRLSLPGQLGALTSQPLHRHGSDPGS
Protocol: Membrane aliquots were thawed and homogenized again in a glass Dounce homogenizer (approximately 10 passes). Test compounds were diluted (6 concentrations at half-log intervals) from DMSO stock solutions in assay buffer (135 mM NaCl, 5 mM KCl, 0.8 mM MgCl2, 10 mM HEPES, 10 mM glucose, 1 mM EGTA, 0.01% BSA, pH 7.4), and tested in duplicate at each concentration. The following were added to each 200 μl well of a 96-well polystyrene plate (Packard Optiplate, cat. # 6005290): 20 μl of assay binding buffer (for total bounds), or 1 μM astemizole (for non-specific bounds), or test compound, 50 μl of [^3H]-dofetilide, and 130 μl of membrane homogenate (final protein concentration=30 μg per well). The plates were incubated at room temperature for 45 m, aspirated onto GF/B filter plates, and washed with 2 ml of cold wash buffer. The radioactivity was counted in a Packard Topcount Scintillation Counter after addition of 50 μl of scintillant (Packard Microscint-20, cat. # 6013621). The data were analyzed with a four-parameter logistic equation (PRISM™, Graphpad or Assay Explorer™, MDL). Ki values were derived by means of the Cheng and Prusoff (1973) equation (Ki=IC50/1+[ligand]/Kd) using Kd values for [^3H]-dofetilide obtained from previously performed saturation assays (Diaz et al., 2004). […] Each Ki represents an average of at least two independent determinations.
Thus, binding affinities to the hERG channel were expressed in Ki value, i.e. Ki hERG.

[2] = target: T1, α7 nAChRs (Rattus norvegicus, UniProt Q05941); assay: [3H]-methyllycaconitine (MLA) binding assay
T1 construct: Membrane enriched fractions from rat brain minus cerebellum; tissue ABS Inc., Wilmington, Del; host or cells: rat brain minus cerebellum
T1 sequence (Q05941 23-502): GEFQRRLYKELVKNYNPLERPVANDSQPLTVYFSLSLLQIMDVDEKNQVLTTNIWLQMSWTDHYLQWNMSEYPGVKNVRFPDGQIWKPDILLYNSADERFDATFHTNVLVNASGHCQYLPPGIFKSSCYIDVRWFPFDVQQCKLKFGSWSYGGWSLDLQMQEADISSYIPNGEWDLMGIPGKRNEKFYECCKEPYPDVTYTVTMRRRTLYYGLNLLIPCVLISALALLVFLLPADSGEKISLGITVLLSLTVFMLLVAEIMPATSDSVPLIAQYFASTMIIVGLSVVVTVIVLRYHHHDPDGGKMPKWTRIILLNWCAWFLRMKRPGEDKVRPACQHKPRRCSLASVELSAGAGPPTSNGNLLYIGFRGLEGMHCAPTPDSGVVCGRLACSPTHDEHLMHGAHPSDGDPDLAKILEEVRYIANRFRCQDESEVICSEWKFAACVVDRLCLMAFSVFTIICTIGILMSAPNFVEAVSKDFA
Protocol: To determine the effectiveness of representative compounds of this invention as α7 nAChRs, the compounds of the invention were evaluated according to the [3H]-methyllycaconitine (MLA) binding assay and considering the [^3H]-cytisine binding assay, which were performed as described below.
[^3H]-Methyllycaconitine (MLA) Binding
Binding conditions were similar to those for [^3H]-cytisine binding. Membrane enriched fractions from rat brain minus cerebellum (ABS Inc., Wilmington, Del.) were slowly thawed at 4° C., washed and resuspended in 30 volumes of BSS-Tris buffer (120 mM NaCl, 5 mM KCl, 2 mM CaCl2, 2 mM MgCl2, and 50 mM Tris-Cl, pH 7.4, 22° C.). Samples containing 100-200 μg of protein, 5 nM [^3H]-MLA (25 Ci/mmol; Perkin Elmer/NEN Life Science Products, Boston, Mass.) and 0.1% bovine serum albumin (BSA, Millipore, Bedford, Mass.) were incubated in a final volume of 500 μL for 60 minutes at 22° C. Seven log-dilution concentrations of each compound were tested in duplicate. Non-specific binding was determined in the presence of 10 μM MLA. Bound radioactivity was isolated by vacuum filtration onto glass fiber filter plates prewetted with 2% BSA using a 96-well filtration apparatus (Packard Instruments, Meriden, Conn.) and were then rapidly rinsed with 2 mL of ice-cold BSS. Packard MicroScint-20® scintillation cocktail (40 μL) was added to each well and radioactivity was determined using a Packard TopCount® instrument. The IC50 values were determined by nonlinear regression in Microsoft Excel® software. Ki values were calculated from the IC50s using the Cheng-Prusoff equation, where Ki=IC50/1+[Ligand]/KD].

[3] = rat brain minus cerebellum membranes, 5 nM [3H]-MLA, read-out: α7 binding [3H]MLA Ki

Structure (SMILES)	Ki [1]	selectivity ratio at 45 min [1]	Ki [2, 3]	Ki [2]
c1cc2cc(-c3ccc(O[C@H]4CN5CCC4CC5)nc3)ccc2[nH]1 [Example 31, (R)-3-[5-(1H-Indol-5-yl)-pyridin-2-yloxy]-1-aza-bicyclo[2.2.2]octane trifluoroacetate]	2570 nM	339	7.6 nM	
Nc1nc2ccc(-c3ccc(O[C@H]4CN5CCC4CC5)cc3)cc2s1 [Example 16, 6-{4-[(3R)-1-Azabicyclo[2.2.2]oct-3-yloxy]phenyl}-1,3-benzothiazol-2-amine]	1510 nM	888		1.7 nM
c1cc2c(cc1-c1ccc(O[C@H]3CN4CCC3CC4)nn1)CCC2 [E, (R)-3-(6-Indan-5-yl-pyridazin-3-yloxy)-1-aza-bicyclo[2.2.2]octane trifluoroacetate, reference compound]	1680 nM	50	33.9 nM	
c1cc2cc(-c3ccc(O[C@H]4CN5CCC4CC5)nn3)ccc2[nH]1 [Example 9, 5-{6-[(3R)-1-Azabicyclo[2.2.2]oct-3-yloxy]pyridazin-3-yl}-1H-indole]	10900 nM	1620	6.7 nM	
c1cc(-c2cnc(O[C@H]3CN4CCC3CC4)nc2)c2cc[nH]c2c1 [Example 12, 4-{2-[(3R)-1-Azabicyclo[2.2.2]oct-3-yloxy]pyrimidin-5-yl}-1H-indole]	8830 nM	516		17.1 nM
c1cc2cc(-c3ccc(O[C@H]4CN5CCC4CC5)nn3)ccc2o1 [B, (R)-3-[6-(Benzofuran-5-yl)-pyridazin-3-yloxy]-1-aza-bicyclo[2.2.2]octane trifluoroacetate, reference compound]	4090 nM	29	142 nM	
CN(C)Cc1c[nH]c2ccc(-c3ccc(O[C@H]4CN5CCC4CC5)nn3)cc12 [Example 22, (R)-{5-[6-(1-Aza-bicyclo[2.2.2]oct-3-yloxy)-pyridazin-3-yl]-1H-indol-3-ylmethyl}-dimethyl-amine bis(fumarate)]	37300 nM	669	55.8 nM	
Cc1c[nH]c2ccc(-c3ccc(O[C@H]4CN5CCC4CC5)nn3)cc12 [Example 10, 5-{6-[(3R)-1-Azabicyclo[2.2.2]oct-3-yloxy]pyridazin-3-yl}-3-methyl-1H-indole]	5200 nM	1680		3.1 nM
O=C1Cc2cc(-c3ccc(O[C@H]4C[N+]5([O-])CCC4CC5)nn3)ccc2N1 [Example 27, 5-{6-[(3R)-1-Oxy-1-Aza-bicyclo[2.2.2]oct-3-yloxy]-pyridazin-3-yl}-1,3-dihydro-indol-2-one bis(hydrogen chloride)]	> 50000 nM	> 4000	13.9 nM	
C1=Cc2cc(-c3ccc(O[C@H]4CN5CCC4CC5)nn3)ccc2C1 [D, (R)-3-[6-(1H-Inden-5-yl)-pyridazin-3-yloxy]-1-aza-bicyclo[2.2.2]octane trifluoroacetate, reference compound]	2090 nM	133	15.7 nM	
c1ccc2oc(-c3ccc(O[C@H]4CN5CCC4CC5)nn3)cc2c1 [Example C, (R)-3-[6-(Benzofuran-2-yl)-pyridazin-3-yloxy]-1-aza-bicyclo[2.2.2]octane trifluoroacetate, reference compound]	392 nM	2	162 nM	
c1cc2cc(-c3ccc(O[C@@H]4CN5CCC4CC5)nn3)ccc2[nH]1 [Example 30, (S)-3-[6-(1H-Indol-5-yl)-pyridazin-3-yloxy]-1-aza-bicyclo[2.2.2]octane fumarate]	12700 nM	2960	4.3 nM	
c1ccc2cc(-c3ccc(O[C@H]4CN5CCC4CC5)nn3)ccc2c1 [Example A, (R)-3-(6-Naphthalen-2-yl-pyridazin-3-yloxy)-1-aza-bicyclo[2.2.2]octane trifluoroacetate, reference compound]	838 nM	11	78.9 nM	
Cc1n[nH]c2ccc(-c3ccc(O[C@H]4CN5CCC4CC5)nn3)cc12 [Example 20, (R)-3-[6-(3-Methyl-1H-indazol-5-yl)-pyridazin-3-yloxy]-1-aza-bicyclo[2.2.2]octane fumarate]	13000 nM	797	16.3 nM	
